Experimental data taken from paper PMC10227015, “From a drug repositioning to a structure-based drug design approach to tackle acute lymphoblastic leukemia” (Nature Communications, 2023).
Where two headings read alike, the source gives them in different places.

How the values were obtained:
[1] = test system: CCRF-CEM cell line; assay: dCK cellular assay: CCRF-CEM proliferation in the presence of dT and dC; format: cell-based, human; conditions: Homo sapiens; Figure 2a, CCRF-CEM cell line, mean; read-out: IC50 (nM) (Cell Prolif)
Procedure, shortened: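 Two conditions in T-ALL CCRF-CEM cells: compound only, and compound with thymidine blocking de novo synthesis and deoxycytidine rescuing via dCK. Metabolic dye fluorescence (560/590 nm) gives % proliferation vs DMSO; IC50s, mean ± SD of at least three triplicate runs.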

[2] = target: T1, dCK-C3S-S74E (Homo sapiens, UniProt P27707, form not given/S74E)
T1 sequence (P27707 whole entry S74E, form open): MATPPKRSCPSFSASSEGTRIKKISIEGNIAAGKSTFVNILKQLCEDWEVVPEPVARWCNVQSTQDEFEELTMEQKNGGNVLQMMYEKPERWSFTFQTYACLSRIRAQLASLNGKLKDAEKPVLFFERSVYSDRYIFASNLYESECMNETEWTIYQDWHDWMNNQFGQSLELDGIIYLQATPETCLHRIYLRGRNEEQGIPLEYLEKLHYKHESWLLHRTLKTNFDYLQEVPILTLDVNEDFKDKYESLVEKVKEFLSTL

[3] = target: T1, dCK-C3S-S74E; assay: Enzymatic assay (PK/LDH coupled), dC phosphorylation by dCK in the presence of ATP; format: biochemical; conditions: for IC50: read-out: ENZYMATIC ASSAY IC50, presence of ATP, [dCK] = 50 nM (footnote A)
Method: (§1) For enzymatic assays, cells were re-suspended in 20 mM TRIS, pH 8 500 mM NaCl, 0.1% BRIJ-35 and 5% glycerol buffer and one EDTA free anti-protease tablet was added (Roche). After sonication and centrifugation (30,000 × g), the supernatant was loaded on a 5 ml HisTrap FF column (GE healthcare) pre-equilibrated with 20 mM TRIS, pH 8, 500 mM NaCl, 0.01% BRIJ-35 and 5% glycerol buffer. The protein was then eluted by the same buffer containing 250 mM imidazole after a wash containing 25 mM imidazole. The eluted fraction was applied on a HiPrep 26/10 desalting column (GE healthcare) pre-equilibrated with 20 mM TRIS, pH 8, 500 mM NaCl, 5% glycerol and 0.01% BRIJ-35 buffer. Finally, protein in a 20% glycerol buffer was flash frozen in liquid nitrogen and stored at −80 °C.
(§2) Kinetic analyses were performed using a spectrophotometric continuous enzymatic-coupled assay using pyruvate kinase (PK) and lactate dehydrogenase (LDH). Analysis of the effect of compounds on dCK-C3S-S74E activity was performed using dC as substrate and UTP/ATP as phosphate donors. UTP is the physiological dCK-phosphate donor[46] and it was used to determine activation versus inhibition behavior. ATP was used to calculate IC50 values, as it allows the analysis of a dose response curve. The PK/LDH coupled assay is based on the conversion of phosphoenolpyruvate (PEP) and UDP/ADP to pyruvate and UTP/ATP by PK and the subsequent conversion of pyruvate to lactate by LDH. The latter step requires NADH, which is oxidized to NAD^+. NADH is fluorescent (excitation at 337 nm and emission at 460 nm), but not NAD^+. Thus, the measurement of fluorescent decrease at 460 nm is a measure of kinase activity. dCK experiments were performed in a buffer containing 50 mM HEPES, pH 7.5, 5 mM MgCl2, 1 mM DTT, and 100 mM KCl. Buffer was supplemented with PK (0.01 U/µl), LDH (0.02 U/µl), PEP (1 mM), NADH (300 µM) and compounds at varying concentrations. For UTP assays, protein concentration was 2 μM, substrate 200 µM (dC), and UTP 1 mM. For ATP assays, protein concentration was 100 nM (and 50 nM when indicated), substrate 100 µM (dC), and ATP 1 mM. All measurements were performed on a microplate reader Pherastar FS (BMG Labtech). All assays were performed in triplicate and each experiment was performed at least twice. The data are presented as mean ± SD. The results were plotted as kinetics and the velocity was determined for each condition as the slope of the linear range of the curve. For each compound concentration, the velocity of the reaction (according to V = d[P]/dt) was normalized with respect to the drug free control and velocity ratios were compared. IC50 values corresponding to enzymatic inhibition in ATP were calculated by nonlinear regression curves using GraphPad Prism software 9.4.0.

[4] = Plasma pharmacokinetics after IP administration; format: in vivo; conditions: male, Swiss, mouse, mice; for half-life: read-out: T ½ (converted)
Method: (§3) To evaluate the in vivo toxicity selected compounds were injected by intraperitoneal (IP) route to 7 weeks-old male Swiss mice (n = 2) at 10, 20, 40, 50, or 80 mg/kg by unique injection. […] Compounds were administered in their hydrochloride salt forms. Mice were then observed closely for the next one hour, then every hour for 8 h. Observations were continued for 72 h for signs of pain or toxicity such as change in the behavior and in the activity in the cage (decreased locomotion) or change in the appearance (curved back, eyes half-closed, bristle hair, hips hollowed out). In vivo toxicity of compound OR0642 at 40 and 80 mg/kg was also assessed in the NOD-SCID-IL2Rγc null (NSG) mice model for 2 weeks in the presence and absence of dT to confirm the safety of the compound. […]. Blood samples were collected and spun at 10,000 × g prior to collecting the plasma supernatants. All plasma samples were frozen at −80 °C before sample processing. 13 μl of each plasma sample was mixed with 33 μl of acetonitrile to precipitate proteins and extract the compound. Samples were vortexed for 5 min and then placed in an ultrasonic bath for 1 min. The precipitated proteins were sedimented by centrifugation (15,000 × g, 5 min, 16 °C). Supernatants were transferred to a microplate to be analyzed by LC–MS/MS. All samples were analyzed with a UHPLC coupled to a Shimadzu LC-MS 8030 triple quadrupole. The solutions of a standard range, prepared with plasma from untreated mice, were analyzed in the same series of injections.

[5] = target: T1, dCK-C3S-S74E; assay: Enzymatic assay (PK/LDH coupled), dC phosphorylation by dCK in the presence of UTP; format: biochemical; conditions: presence of UTP
Method: as §1
as §2, with “Analysis of the effect of compounds on dCK-C3S-S74E activity was performed using dC as substrate and UTP/ATP as phosphate donors.” left out

[6] = Acute in vivo toxicity, unique IP injection; conditions: male, mouse, in vivo; Swiss mice, IP, unique injection; read-out: Maximum tolerated dose
Method: as §3

[7] = target: T1, dCK-C3S-S74E; assay: Thermal shift assay (TSA); conditions: for ΔTm (º) (TSA): Figure 2a, mean; for Thermal Shift Assay Mean (ΔTm (º)): Figure 2b
[8] = test system: Swiss male mice; assay: Acute in vivo toxicity, unique IP injection; conditions: mice, 80 mg/kg/day
Method: as §3

SMILES: CCCN(c1nc(-c2nc(N)cc(N)n2)cs1)c1cc(-c2ccc(OCC(=O)N3CCN(C)CC3)nc2)ccc1C [OR0630]
- IC50 [1]: 245 nM
- ΔTm (º) (TSA) [2]: 17.35 º

SMILES: CCCN(c1nc(-c2nc(N)cc(N)n2)cs1)c1cc(-c2ccc(S(=O)(=O)N3CCN(C)CC3)cc2)ccc1C [OR0624]
- Enzymatic activity (ATP) Mean (% activity) ([3]; 0.02 µM): 91.0%
- Enzymatic activity (ATP) Mean (% activity) ([3]; 0.04 µM): 91.7%
- Enzymatic activity (ATP) Mean (% activity) ([3]; 0.08 µM): 65.2%
- Enzymatic activity (ATP) Mean (% activity) ([3]; 0.16 µM): 32.0%
- Enzymatic activity (ATP) Mean (% activity) ([3]; 0.31 µM): 9.2%
- Enzymatic activity (ATP) Mean (% activity) ([3]; 0.63 µM): 3.9%
- Enzymatic activity (ATP) Mean (% activity) ([3]; 1.25 µM): 2.6%
- Enzymatic activity (ATP) Mean (% activity) ([3]; 2.5 µM): 1.2%
- Enzymatic activity (ATP) Mean (% activity) ([3]; 5 µM): 0.363%
- IC50 [3]: 198 ± 131 nM
- Cmax ([4]; dose 20 mg/Kg): 3.1 ± 0.6 µM
- Tmax ([4]; dose 20 mg/Kg): 1 h
- half-life ([4]; dose 20 mg/Kg): 2.22 ± 0.183 h
- ENZYMATIC ASSAY (Activation/Inhibition) [5]: I
- MTD at 72 h [6]: 20 mg/kg
- ΔTm (º) (TSA) [7]: 19.49 º
- Thermal Shift Assay Mean (ΔTm (º)) [7]: 19.5 º
- THERMAL SHIFT ASSAY +Tm (°) ([7]; mean ± SD): 19.5 ± 0.8 °

SMILES: CCCN(c1nc(-c2nc(N)cc(N)n2)cs1)c1cc(-c2ccc(S(=O)(=O)N3CCN(C)CC3)nc2)ccc1C [OR0634]
- Enzymatic activity (ATP) Mean (% activity) ([3]; 0.02 µM): 89.7%
- Enzymatic activity (ATP) Mean (% activity) ([3]; 0.04 µM): 80.2%
- Enzymatic activity (ATP) Mean (% activity) ([3]; 0.08 µM): 45.4%
- Enzymatic activity (ATP) Mean (% activity) ([3]; 0.16 µM): 12.5%
- Enzymatic activity (ATP) Mean (% activity) ([3]; 0.31 µM): 4.0%
- Enzymatic activity (ATP) Mean (% activity) ([3]; 0.63 µM): 2.2%
- Enzymatic activity (ATP) Mean (% activity) ([3]; 1.25 µM): 1.9%
- Enzymatic activity (ATP) Mean (% activity) ([3]; 2.5 µM): 1.6%
- Enzymatic activity (ATP) Mean (% activity) ([3]; 5 µM): 1.6%
- IC50 [3]: 100 ± 82 nM
- Cmax ([4]; dose 40 mg/Kg): 5.5 ± 1.3 µM
- Tmax ([4]; dose 40 mg/Kg): 1 h
- half-life ([4]; dose 40 mg/Kg): 2.15 ± 0.283 h
- ENZYMATIC ASSAY (Activation/Inhibition) [5]: I
- in vivo tolerance [8]: well tolerated
- MTD at 72 h [6]: > 80 mg/kg
- ΔTm (º) (TSA) [7]: 17.45 º
- Thermal Shift Assay Mean (ΔTm (º)) [7]: 17.5 º
